Experimental findings from patent US20090270435A1 (priority 2006, published 2009) are described below.

The test system of experiment [1] is hepatic fatty acid synthesis. Nature of the experiment: Measurement of fatty acid synthesis inhibition in experimental animals ([2-14C]acetate into saponifiable lipids in liver). It is filed as in vivo, Sprague Dawley rats. To be noted: Rattus norvegicus; for inhibition at 30 mg/kg: po, read-out: Percent Inhibition at 30 mg/kg. From the text: The ACC inhibitory activity of compounds of this invention, and the salts of such compounds, can be confirmed in vivo by evaluation of their ability to inhibit hepatic fatty acid production and to stimulate whole body fatty acid oxidation using methods based on standard procedures. For example, since ACC catalyzes the first committed step in the biosynthesis of fatty acids, the in vivo activity of these compounds can be confirmed by measuring the ability of the compounds of this invention, and the salts of such compounds, to prevent the formation of radio labeled fatty acids from radio labeled acetate in the livers of treated mammals.
[1] Measurement of fatty acid synthesis inhibition in experimental animals. Incorporation of [2-^14C]acetate into saponifyable lipids in the livers of mammals (e.g. CDI mice, C57BI/6J-ob/ob mice, Sprague Dawley rats (available from Charles River Boston, Mass. or Jackson Labs Bar Harbor, Me.)) can be measured essentially as previously described for assessment of hepatic sterol synthesis (Harwood et al, Biochem. Pharmacol, 40: 1281-1293, 1990; Harwood et al. Biochem. Pharmacol. 53: 839-864, 1997) with the following modifications to allow for assessment fatty acid synthesis. For example, Sprague Dawley rats are administered a 0.1 ml per 40 g body weight of an oral bolus of vehicle (e.g. water or 0.5% methylcellulose in water)±test compound. One to four hours after compound administration, animals receive an intraperitoneal injection of 0.5 ml of [2-^14C]acetate (64 μCi/ml; 57 mCi/mmol). One hour after radiolabel administration, animals are sacrificed by CO2 asphyxiation and two, 0.75 g liver pieces are removed and saponified at […]. for 120 minutes in 1.5 ml of 2.5 M NaOH. After saponification, 2.5 ml of absolute EtOH are added to each sample and the solutions are mixed and allowed to stand overnight. Petroleum ether, 4.8 ml, is then added to each sample and the mixtures are first shaken vigorously for 2 minutes then centrifuged at 1000×g in a bench-top Sorvall®9 for 5 minutes. The resultant petroleum ether layers, which contain the nonsaponifyable lipids (e.g. cholesterol, post-squalene cholesterol precursors and other non-saponifiable lipids), are removed and discarded. The remaining aqueous layer (containing fatty acid sodium salts) is acidified to pH<2 by addition of 0.6 ml of 12 M HCl and extracted two times with 4.8 ml of petroleum ether. The pooled organic fractions (containing protonated fatty acids) are transferred to liquid scintillation vials, dried under nitrogen, dissolved in 7 ml of Aqua sol liquid scintillation fluid, and assessed for radioactivity using a liquid scintillation counter. Inhibition of fatty acid synthesis by the test compound is expressed as the concentration required to reduce by 50% the dpm [2-^14C]acetate incorporated into saponifiable lipids during the 1 hour interval between radio labeled acetate injection and CO2 asphyxiation.
Some compounds of the present were evaluated for inhibition of fatty acid synthesis as described above. As shown below, these compounds were all observed to inhibit the synthesis of fatty acids in vivo.

Experiment [2] concerns the target T1, ACC1 from rat liver (Rattus norvegicus, UniProt P11497).
T1 construct: The livers (for ACC1 preparation) or skeletal muscle tissue (for ACC2 preparation) are removed; from tissue; host or cells: liver of male CD rats (fasted, then fed a high sucrose diet)
Nature of the experiment: Direct inhibition of ACC1 activity (14C-bicarbonate incorporation). It is filed as biochemical. In short, it runs like this:
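ACC1 partially purified from livers of fasted/sucrose-refed male rats by PEG and ammonium sulfate fractionation, then preincubated 30 min at 37°C with 10 mM citrate and 1.0 mM MgCl2. Reaction ran 7 min at 37°C, stopped with HCl; acid-stable radioactivity counted by scintillation; HCl-first tubes served as blanks.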

In experiment [3] the target is T2, ACC2 from rat skeletal muscle (Rattus norvegicus, UniProt Q1HEC0).
T2 construct: The livers (for ACC1 preparation) or skeletal muscle tissue (for ACC2 preparation) are removed; from tissue; host or cells: skeletal muscle of male CD rats (fasted, then fed a high sucrose diet)
T2 sequence (Q1HEC0 17-2455): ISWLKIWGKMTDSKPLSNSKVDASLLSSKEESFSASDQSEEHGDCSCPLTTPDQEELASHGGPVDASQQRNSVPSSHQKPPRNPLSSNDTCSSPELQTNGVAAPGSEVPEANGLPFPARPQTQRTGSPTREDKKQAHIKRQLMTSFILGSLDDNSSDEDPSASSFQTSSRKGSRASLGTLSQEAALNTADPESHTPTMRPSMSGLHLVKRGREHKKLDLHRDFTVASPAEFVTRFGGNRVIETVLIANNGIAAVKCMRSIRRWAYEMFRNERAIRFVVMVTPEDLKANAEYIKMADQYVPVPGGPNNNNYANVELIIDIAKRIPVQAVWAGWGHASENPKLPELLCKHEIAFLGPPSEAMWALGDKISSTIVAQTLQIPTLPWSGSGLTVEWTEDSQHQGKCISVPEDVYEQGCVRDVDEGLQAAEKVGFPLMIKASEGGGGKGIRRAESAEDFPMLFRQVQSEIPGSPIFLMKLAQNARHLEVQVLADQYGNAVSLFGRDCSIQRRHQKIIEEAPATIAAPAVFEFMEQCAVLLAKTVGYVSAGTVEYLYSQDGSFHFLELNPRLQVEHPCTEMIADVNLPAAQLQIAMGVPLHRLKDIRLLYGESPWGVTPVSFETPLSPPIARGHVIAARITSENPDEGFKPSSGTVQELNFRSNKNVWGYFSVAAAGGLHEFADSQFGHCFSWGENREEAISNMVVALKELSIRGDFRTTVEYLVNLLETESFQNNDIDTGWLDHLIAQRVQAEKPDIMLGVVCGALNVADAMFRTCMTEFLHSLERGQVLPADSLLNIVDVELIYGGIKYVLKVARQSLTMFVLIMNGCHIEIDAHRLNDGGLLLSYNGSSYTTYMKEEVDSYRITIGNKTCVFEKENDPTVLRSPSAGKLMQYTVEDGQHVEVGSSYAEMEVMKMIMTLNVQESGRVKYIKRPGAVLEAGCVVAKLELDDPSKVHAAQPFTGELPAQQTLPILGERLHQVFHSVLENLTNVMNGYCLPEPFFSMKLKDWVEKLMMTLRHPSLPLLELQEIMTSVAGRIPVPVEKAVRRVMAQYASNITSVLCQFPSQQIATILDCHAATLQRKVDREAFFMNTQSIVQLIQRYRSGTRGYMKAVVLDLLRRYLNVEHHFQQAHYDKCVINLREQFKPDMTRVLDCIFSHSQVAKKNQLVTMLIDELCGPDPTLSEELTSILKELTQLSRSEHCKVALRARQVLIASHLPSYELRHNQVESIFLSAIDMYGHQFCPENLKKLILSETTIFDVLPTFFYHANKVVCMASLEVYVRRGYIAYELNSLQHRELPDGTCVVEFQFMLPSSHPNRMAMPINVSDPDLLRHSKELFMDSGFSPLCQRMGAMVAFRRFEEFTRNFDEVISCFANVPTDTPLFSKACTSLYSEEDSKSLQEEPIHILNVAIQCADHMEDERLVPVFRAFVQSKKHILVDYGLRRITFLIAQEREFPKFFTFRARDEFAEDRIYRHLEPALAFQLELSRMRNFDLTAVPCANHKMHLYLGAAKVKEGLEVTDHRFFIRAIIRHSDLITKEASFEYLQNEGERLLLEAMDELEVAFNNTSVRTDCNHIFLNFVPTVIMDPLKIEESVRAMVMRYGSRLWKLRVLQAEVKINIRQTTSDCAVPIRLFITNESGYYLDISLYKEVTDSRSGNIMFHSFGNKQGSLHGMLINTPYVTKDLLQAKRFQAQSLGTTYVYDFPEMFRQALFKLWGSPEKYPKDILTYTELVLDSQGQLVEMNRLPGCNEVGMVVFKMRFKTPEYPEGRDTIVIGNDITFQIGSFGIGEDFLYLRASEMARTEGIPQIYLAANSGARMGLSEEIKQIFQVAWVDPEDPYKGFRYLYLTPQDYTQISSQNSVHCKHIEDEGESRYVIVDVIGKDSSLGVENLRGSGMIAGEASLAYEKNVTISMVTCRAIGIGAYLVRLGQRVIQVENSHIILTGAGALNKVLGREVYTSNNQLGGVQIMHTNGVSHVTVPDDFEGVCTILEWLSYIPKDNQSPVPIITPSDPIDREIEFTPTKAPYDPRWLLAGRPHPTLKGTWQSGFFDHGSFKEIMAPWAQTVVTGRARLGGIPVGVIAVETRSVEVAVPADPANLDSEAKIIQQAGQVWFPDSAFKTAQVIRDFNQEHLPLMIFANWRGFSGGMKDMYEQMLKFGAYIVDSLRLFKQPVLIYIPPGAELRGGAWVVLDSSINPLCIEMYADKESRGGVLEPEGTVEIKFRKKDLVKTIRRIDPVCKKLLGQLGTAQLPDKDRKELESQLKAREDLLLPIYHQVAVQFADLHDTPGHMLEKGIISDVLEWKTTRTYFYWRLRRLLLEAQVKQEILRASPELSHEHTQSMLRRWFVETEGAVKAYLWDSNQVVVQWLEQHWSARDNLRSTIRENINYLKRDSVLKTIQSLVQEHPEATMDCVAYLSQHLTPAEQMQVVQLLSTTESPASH
Nature of the experiment: Direct inhibition of ACC2 activity (14C-bicarbonate incorporation). It is filed as biochemical. How it is done: For example direct inhibition of ACC1 and ACC2 activity, for compounds of Formula (1) were determined using preparations of ACC1 from rat liver and ACC2 from rat skeletal muscle.
[1] Preparation of ACC1 and ACC2. ACC1 was obtained from rat liver and ACC2 was obtained from rat skeletal muscle based upon standard procedures such as those described by Thampy and Wakil (J. Biol. Chem. 260: 6318-6323; 1985) using the following method.
Male CD rats weighing 150-200 g are fasted for 2 days and then fed a high sucrose diet (AIN-76A rodent diet; Cat # D10001, Research Diets Inc., New Brunswick, N.J.), for 3 days at which time they are sacrificed by CO2 asphyxiation. The livers (for ACC1 preparation) or skeletal muscle tissue (for ACC2 preparation) are removed, rinsed in ice-cold phosphate-buffered saline (PBS), and homogenized in 5 volumes of homogenization buffer (50 mM potassium phosphate, pH 7.5, 10 mM EDTA, 10 mM 2-mercaptoethanol, 2 mM benzamidine, 0.2 mM phenylmethylsulfonylfluoride (PMSF), 5 mg/L each leupeptin, aprotinin, and antitrypsin) in a Waring® blender for 1 minute at 4° C. All subsequent operations are carried out at 4° C. The homogenate is made 3% with respect to polyethylene glycol (PEG) by the addition of 50% PEG solution and centrifuged at 20,000×g for 15 minutes. The resulting supernatant is adjusted to 5% PEG with the addition of 50% PEG solution and stirred for 5 minutes. The pellet (contains ACC activity) is collected by centrifugation at 20,000×g for 20 minutes, rinsed with Ice-cold doubly distilled water to remove excess PEG and re-suspended in one-fourth the original homogenate volume with homogenization buffer. Ammonium sulfate (200 g/liter) is slowly added with stirring. After 45 minutes the enzyme is collected by centrifugation for 30 minutes at 20,000×g, re-suspended in 10 ml of 50 mM HEPES, pH7.5, 0.1 mM DTT, 1.0 mM EDTA, and 10% glycerol and desalted on a Sephadex™ G-25 column (2.5 cm-x 50 cm) (Pharmacia, Piscataway N.J. now GE Healthcare) […] equilibrated with the same buffer. The desalted enzyme preparation is stored in aliquots at −70° C. Immediately prior to use, frozen ACC1 or ACC2 aliquots are thawed, diluted to 500 μg/ml in buffer containing 50 mM HEPES, pH7.5, 1.0 mM MgCl2, 10 mM tripotassium citrate, 2.0 mM dithiothreitol (DTT), and 0.75 mg/ml fatty acid-free bovine serum albumin (BSA) and pre-incubated at 37° C. for 30 minutes.
[2] Measurement of ACC inhibition. The procedures for measuring ACC1 inhibition and ACC2 inhibition are identical except for the source of the isozyme. For measurement of ACC activity and assessment of ACC inhibition, test compounds are dissolved in dimethylsulfoxide (DMSO) and 1 μL aliquots are placed in 0.5 ml polypropylene tubes. Control tubes contain 1 μL of DMSO alone. Tubes are incubated at 37° C. in a constant temperature water bath. […] The reaction is then initiated by the addition of 10 μL of preincubated ACC fraction prepared as described above. After 7 minutes the reaction is terminated by the addition of 50 μL of 6N HCl and a 150 μL aliquot of the reaction mixture is transferred to glass scintillation vials and evaporated to dryness at 90° C. for at least 1 hour. The dried vials are then cooled, 0.5 ml of water and 5.5 ml of Ready Safe liquid scintillation fluid (Beckman Coulter Inc., Fullerton, Calif.) are added, and the radioactivity is determined using a liquid scintillation counter. Tubes that received HCl before ACC served as blanks.
[3] Specificity for ACC1 vs ACC2 inhibition. The specificity of a compound for Inhibiting ACC1 vs ACC2 can be determined by comparing the concentration of test compound required to inhibit 50% of the activity contained in an aliquot of ACC1 as compared with the concentration of the same compound required to inhibit 50% of the activity of an aliquot of ACC2.

pIC50: −log10 of the molar value. Counter-ions that a name gives are not always drawn.

For `COc1ccc2c(c1)C(=O)CC1(CCN(C(=O)c3cc(C)c4[nH]ncc4c3)CC1)O2` [Ex. A16, 6-methoxy-1′-[(7-methyl-1H-indazol-5-yl)carbonyl]spiro[chromene-2,4′-piperidin]-4(3H)-one], the inhibition at 30 mg/kg in experiment [1] is 83%. Moreover, the inhibition at 10 mg/kg in experiment [1] (inhibition of fatty acid synthesis in vivo, 10 mg/kg, oral bolus, read-out: Percent Inhibition at 10 mg/kg) was 68%. Also, the negative logarithm of the IC50 (pIC50) in experiment [2] (ACC1 from rat liver) is 7.26.

Turning to `N#Cc1ccc2c(c1)C(=O)CC1(CCN(C(=O)c3cccc(-c4cc[nH]n4)c3)CC1)O2` [Ex. M33, 4-oxo-1′-[3-(1H-pyrazol-3-yl)benzoyl]3,4-dihydrospiro[chromene-2,4′-piperidine]-6-carbonitrile], the pIC50 in experiment [2] (Table of Examples M1-M36) was 6.09; in experiment [3] (Table of Examples M1-M36) it was 5.73.

On to `Cc1cc2c(cc1Cl)C(=O)CC1(CCN(C(=O)c3cc(C)c4[nH]ncc4c3)CC1)O2` [Ex. A13, 6-chloro-7-methyl-1′-[(7-methyl-1H-indazol-5-yl)carbonyl]spiro[chromene-2,4′-piperidin]-4(3H)-one], for which the inhibition at 30 mg/kg in experiment [1] was 64%. In experiment [2] (ACC1 from rat liver), this molecule showed a negative-log IC50 (pIC50) of 7.35.

With `CC(C)Oc1ccc2c(c1)C(=O)CC1(CCN(C(=O)c3cc(Cl)c4[nH]ncc4c3)CC1)O2` [Ex. B2, 1′-[(7-chloro-1H-indazol-5-yl)carbonyl]-6-isopropoxyspiro[chromene-2,4′-piperidin]-4(3H)-one], the negative-log IC50 (pIC50) in experiment [2] (ACC1 from rat liver) was 7.79; in experiment [3] (ACC2 from rat skeletal muscle), 7.51.

With `Cc1cc(C(=O)N2CCC3(CC2)CC(=O)c2cc(Cl)c(F)cc2O3)cc2cn[nH]c12` [Ex. A21, 6-chloro-7-fluoro-1′-[(7-methyl-1H-indazol-5-yl)carbonyl]spiro[chromene-2,4′-piperidin]-4(3H)-one], the inhibition at 30 mg/kg in experiment [1] is 59.5%. The molecule further had a pIC50 in experiment [2] (ACC1 from rat liver) of 7.02.

For the molecule `CCOc1ccc2c(c1)C(=O)CC1(CCN(C(=O)c3cc(C)c4[nH]ncc4c3)CC1)O2` [Ex. A4, 6-ethoxy-1′-[(7-methyl-1H-indazol-5-yl)carbonyl]spiro[chromene-2,4′-piperidin]-4(3H)-one], the pIC50 was 7.71 in experiment [2] (ACC1 from rat liver) and 7.52 in experiment [3] (ACC2 from rat skeletal muscle).

With `Cc1cc(C(=O)N2CCC3(CC2)CC(=O)c2cc(OC(C)C)ccc2O3)cc2cn[nH]c12` [Ex. A3, 6-isopropoxy-1′-[(7-methyl-1H-indazol-5-yl)carbonyl]spiro[chromene-2,4′-piperidin]-4(3H)-one], the pIC50 in experiment [2] (ACC1 from rat liver) is 7.84; in experiment [3] (ACC2 from rat skeletal muscle), 7.76.

On to `CC(C)Oc1ccc2c(c1)C(=O)CC1(CCN(C(=O)c3cccc(-c4cc[nH]n4)c3)CC1)O2` [Ex. N3, 6-isopropoxy-1′-[3-(1H-pyrazol-3-yl)benzoyl]spiro[chromene-2,4′-piperidin]-4(3H)-one], for which the pIC50 in experiment [2] (ACC1 from rat liver) is 7.32; in experiment [3] (ACC2 from rat skeletal muscle), 7.26.

`COc1ccc2c(c1)C(=O)CC1(CCN(C(=O)c3cc(C)c4[nH]ncc4c3)CC1)O2` [Ex. A7, 6-methoxy-1′-[(7-methyl-1H-indazol-5-yl)carbonyl]spiro[chromene-2,4′-piperidin]-4(3H)-one trifluoroacetic acid salt]: the pIC50 in experiment [2] (ACC1 from rat liver) was 7.49; in experiment [3] (ACC2 from rat skeletal muscle), 6.86.

For `Cc1cc2c(cc1Cl)C(=O)CC1(CCN(C(=O)c3cccc(-c4cc[nH]n4)c3)CC1)O2` [Ex. M3, 6-chloro-7-methyl-1′-[3-(1H-pyrazol-3-yl)benzoyl]spiro[chromene-2,4′-piperidin]-4(3H)-one], the pIC50 in experiment [2] (Table of Examples M1-M36) is 6.98; in experiment [3] (Table of Examples M1-M36), 6.36.

On to `CCOc1ccc2c(c1)C(=O)CC1(CCN(C(=O)c3cccc(-c4cc[nH]n4)c3)CC1)O2` [Ex. N2, 6-ethoxy-1′-[3-(1H-pyrazol-3-yl)benzoyl]spiro[chromene-2,4′-piperidin]-4(3H)-one], for which the pIC50 in experiment [2] (ACC1 from rat liver) was 7.36; in experiment [3] (ACC2 from rat skeletal muscle), 7.04.

Consider `CCOc1ccc2c(c1)C(=O)CC1(CCN(C(=O)c3cc(Cl)c4[nH]ncc4c3)CC1)O2` [Ex. B3, 1′-[(7-chloro-1H-indazol-5-yl)carbonyl]-6-ethoxyspiro[chromene-2,4′-piperidin]-4(3H)-one], for which the pIC50 in experiment [2] (ACC1 from rat liver) was 7.67; in experiment [3] (ACC2 from rat skeletal muscle), 7.46.

For the molecule `Cc1cc2c(cc1Cl)C(=O)CC1(CCN(C(=O)c3cc(Cl)c4[nH]ncc4c3)CC1)O2` [Ex. B4, 6-chloro-7-methyl-1′-[(7-chloro-1H-indazol-5-yl)carbonyl]spiro[chromene-2,4′-piperidin]-4(3H)-one], the negative logarithm of the IC50 (pIC50) in experiment [2] (ACC1 from rat liver) is 7.25; in experiment [3] (ACC2 from rat skeletal muscle), 6.90.

As for `COc1ccc2c(c1)C(=O)CC1(CCN(C(=O)c3cc(Cl)c4[nH]ncc4c3)CC1)O2` [Ex. B5, 1′-[(7-chloro-1H-indazol-5-yl)carbonyl]-6-methoxyspiro[chromene-2,4′-piperidin]-4(3H)-one], the values for the pIC50 in experiment [2] (ACC1 from rat liver) and in experiment [3] (ACC2 from rat skeletal muscle) were 7.09 and 6.64, respectively.

One may read the pIC50 as the negative decadic logarithm of the IC50, by convention in mol/L. Low values mean a high IC50, high ones a low IC50.
